Measured values taken from patent US20220080053A1, “USE OF ANTI-CEACAM5 IMMUNOCONJUGATES FOR TREATING LUNG CANCER” (SANOFI, priority 2019, published 2022).

T1: human CEACAM5 (Homo sapiens, UniProt P06731)
T1 construct: soluble recombinant CEACAM5 as capture antigen
T1 sequence (P06731 35-685 limits assumed): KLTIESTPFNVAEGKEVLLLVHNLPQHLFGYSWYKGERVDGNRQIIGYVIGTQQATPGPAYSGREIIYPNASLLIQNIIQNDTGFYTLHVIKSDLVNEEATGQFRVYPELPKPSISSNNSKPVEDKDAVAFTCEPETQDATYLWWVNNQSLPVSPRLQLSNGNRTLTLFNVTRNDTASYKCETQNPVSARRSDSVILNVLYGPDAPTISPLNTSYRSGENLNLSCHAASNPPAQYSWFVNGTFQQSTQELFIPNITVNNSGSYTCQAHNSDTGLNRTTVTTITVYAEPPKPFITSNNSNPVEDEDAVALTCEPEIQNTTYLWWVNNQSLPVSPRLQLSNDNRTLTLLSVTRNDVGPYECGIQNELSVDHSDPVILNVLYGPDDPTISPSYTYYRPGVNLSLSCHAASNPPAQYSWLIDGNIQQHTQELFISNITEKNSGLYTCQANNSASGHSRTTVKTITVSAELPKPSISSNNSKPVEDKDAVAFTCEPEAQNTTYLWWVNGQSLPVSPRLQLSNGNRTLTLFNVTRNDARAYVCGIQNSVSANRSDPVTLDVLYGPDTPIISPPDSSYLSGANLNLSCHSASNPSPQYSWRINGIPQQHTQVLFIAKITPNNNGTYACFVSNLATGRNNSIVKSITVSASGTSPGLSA


Legend:
[1] = system: other CEACAM family members; conditions: cited from earlier work
[2] = system: Macaca fascicularis CEACAM5; conditions: cited from earlier work
human CEACAM5 = biological target: T1, human CEACAM5; experiment: Affinity for human CEACAM5; type: binding
From the text: (§1) In an attempt to produce new antibodies against CEACAM5 surface protein with optimal characteristics for therapeutic purposes, mice were immunized with recombinant proteins and with tumour cells. They have screened hundreds of hybridoma using ELISA on several recombinant proteins of the CEACAM family, and flow cytometry with relevant cell lines, in order to select only immunoglobulins (IgGs) with the advantageous profile. Unexpectedly, they were able to select hybridoma clones and produce corresponding mature IgGs that comprise all of the desired features. […] In a cellular context, these antibodies display high affinity for tumor cells (in the nano-molar range). […] It can be experimentally assessed by a variety of known methods, such as measuring association and dissociation rates with surface plasmon resonance or measuring the EC50 (or apparent KD) in an immunochemical assay (ELISA, FACS). In these assays, the EC50 is the concentration of the antibody which induces a response halfway between the baseline and maximum after some specified exposure time on a defined concentration of antigen by ELISA (enzyme-linked immuno-sorbent assay) or cell expressing the antigen by FACS (Fluorescence Activated Cell Sorting). Affinity for human CEACAM5 or for Macaca fascicularis CEACAM5 may be determined as the EC50 value in an ELISA using soluble recombinant CEACAM5 as capture antigen.

[3] = system: Macaca fascicularis CEACAM5; experiment: Affinity for Macaca fascicularis CEACAM5; type: binding
From the text: as §1

Macaca fascicularis CEACAM5, sequence (as listed by the source): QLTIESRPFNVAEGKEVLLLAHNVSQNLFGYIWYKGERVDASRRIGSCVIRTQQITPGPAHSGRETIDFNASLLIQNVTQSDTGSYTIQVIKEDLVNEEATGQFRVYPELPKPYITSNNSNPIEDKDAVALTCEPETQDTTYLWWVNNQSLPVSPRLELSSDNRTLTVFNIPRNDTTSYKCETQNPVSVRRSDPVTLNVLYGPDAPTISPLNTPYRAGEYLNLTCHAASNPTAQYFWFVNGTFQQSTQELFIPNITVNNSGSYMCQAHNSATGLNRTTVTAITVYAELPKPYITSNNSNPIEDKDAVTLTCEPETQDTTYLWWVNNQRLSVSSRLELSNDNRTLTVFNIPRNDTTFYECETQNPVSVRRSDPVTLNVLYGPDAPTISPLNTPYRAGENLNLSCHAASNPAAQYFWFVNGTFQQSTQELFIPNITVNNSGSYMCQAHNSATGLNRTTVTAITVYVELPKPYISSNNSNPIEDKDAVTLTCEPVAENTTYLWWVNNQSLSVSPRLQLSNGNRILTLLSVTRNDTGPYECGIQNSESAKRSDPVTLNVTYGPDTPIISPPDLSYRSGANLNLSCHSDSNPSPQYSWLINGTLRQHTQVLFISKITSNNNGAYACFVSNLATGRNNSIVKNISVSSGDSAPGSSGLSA

Row | Molecule | binding to related antigens / other CEACAM family members [1] | cross-reaction with CEACAM5 from Macaca fascicularis [2] | affinity for human CEACAM5 compared with MAb2 (human CEACAM5) | affinity for Macaca fascicularis CEACAM5 compared with MAb2 [3]
1 | labetuzumab: Immunomedics anti-human CEACAM5 antibody used in clinical trials | not to bind | not cross-reacting | – | –
2 | Mab2K52R: variant of antibody MAb2 generated by introducing a K52R substitution in the CDR2-L (antibody, V domains shown) VH: EVQLQESGGVLVKPGGSLKLSCAASGFVFSSYDMSWVRQTPEKRLEWVAYISSGGGITYFPDTVQGRFTVSRDNAKNTLYLQMNSLKSEDTAIYYCAAHYFGSSGPFAYWGQGTLVTVSA VL: DIQMTQSPASLSASVGETVTITCRASENIFSYLAWYQQKQGKSPQLLVYNTRTLAEGVPSRFSGSGSGTQFSLKINSLQPEDFGSYYCQHHYGTPFTFGSGTKLEIK | – | – | essentially the same affinity | essentially the same affinity
